One test concerns HT-29 cells. The experiment in a line: CellTiter-Glo luminescent cell viability assay with HT-29 cells (72h incubation). Format: cell-based, human. The following applies: Homo sapiens, HT-29, HT29 cells, read-out: CTG HT29. Put shortly:
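400 cells per well in DMEM/10% FCS were dosed after 24 h and kept 72 h at 37 °C, 5% CO2. ATP-based luminescence (CellTiter-Glo) normalized to DMSO and 10 μM staurosporine controls; IC50 by dose-response fit.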
For orientation: Cellular ATP, detected with luciferase, serves as a proxy for viable cell number.

For test [1], the system named is A549 (human lung carcinoma cell line). The experiment in a line: Glo assay of A549 cells (Table 3; ProteasomeGlo plating scheme). The settings on record: Homo sapiens. It counts as cell-based. Put shortly:
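After acoustic compound transfer, plates incubate 105 min (37° C., 5% CO2). Proteasome-Glo reagent containing Suc-LLVY-Glo substrate is added, plates are shaken, then luminescence is measured after 10-15 min to derive IC50 [nM]. Staurosporine and DMSO serve as controls.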

The mark [2] stands for this setting: A549 cells, read-out: PGLo A549.

Read-outs that look alike come from different tables or passages of the source.

Consider `Cc1ccc2cc1CNC(=O)[C@H](CCc1ccccc1)NC(=O)[C@@H](N)CC(=O)N1CCCC(CCO2)C1` (stereo partly drawn) [Compound 8, (9S,12S)-12-amino-5^4-methyl-9-phenethyl-4-oxa-7,10-diaza-1(3,1)-piperidina-5(1,3)-benzenacyclotetradecaphane-8,11,14-trione], for which the IC50 was in the range of 100 to 500 nM in the test on HT-29 cells and 500 to 1000 nM in test [1] (setting [2]).

As for `Cc1ccc2cc1CNC(=O)[C@H](CCc1ccccc1)NC(=O)CCC(=O)N1CCCC(CCO2)C1` (stereo partly drawn) [Compound 13, (9S)-5^4-methyl-9-phenethyl-4-oxa-7,10-diaza-1(3,1)-piperidina-5(1,3)-benzenacyclotetradecaphane-8,11,14-trione], the IC50 (with HT-29 cells; in test [1] (setting [2])) was 500 to 1000 nM each time.

With `Cc1ccc2cc1CNC(=O)[C@H](CCc1ccccc1)NC(=O)CCCCC(=O)N1CCCC(CCO2)C1` (stereo partly drawn) [Compound 16, (9S)-5^4-methyl-9-phenethyl-4-oxa-7,10-diaza-1(3,1)-piperidina-5(1,3)-benzenacyclohexadecaphane-8,11,16-trione], the IC50 with HT-29 cells was 100 to 500 nM; in test [1] (setting [2]), 500 to 1000 nM.

Turning to `Cc1ccc2cc1CNC(=O)[C@H](CCc1ccccc1)NC(=O)[C@@H](NC(=O)CCc1cccc(F)c1)CC(=O)N1CCCC(CCO2)C1` (stereo partly drawn) [Compound 25, 3-(3-fluorophenyl)-N-((9S,12S)-5^4-methyl-8,11,14-trioxo-9-phenethyl-4-oxa-7,10-diaza-1(3,1)-piperidina-5(1,3)-benzenacyclotetradecaphane-12-yl)propanamide], the IC50 (with HT-29 cells; in test [1] (setting [2])) was < 100 nM in each case.

As to `Cc1ccc2cc1CNC(=O)[C@H](CCc1ccccc1)NC(=O)[C@@H](NC(=O)c1ccccc1)CC(=O)N1CCCC(CCO2)C1` (stereo partly drawn) [Compound 26, N-((9S,12S)-5^4-methyl-8,11,14-trioxo-9-phenethyl-4-oxa-7,10-diaza-1(3,1)-piperidina-5(1,3)-benzenacyclotetradecaphane-12-yl)benzamide], the IC50 (in the test with HT-29 cells; in test [1] (setting [2])) was < 100 nM throughout.

As for `Cc1ccc2cc1CNC(=O)[C@H](CCc1ccccc1)NC(=O)[C@@H](Nc1ccccn1)CC(=O)N1CCCC(CCO2)C1` (stereo partly drawn) [Compound 36, (9S,12S)-5^4-methyl-9-phenethyl-12-(pyridin-2-ylamino)-4-oxa-7,10-diaza-1(3,1)-piperidina-5(1,3)-benzenacyclotetradecaphane-8,11,14-trione], the IC50 (in the test on HT-29 cells; in test [1] (setting [2])) was 100 to 500 nM throughout.

Turning to `Cc1ccc2cc1CNC(=O)[C@H](CCc1ccccc1)NC(=O)[C@@H](NS(C)(=O)=O)CC(=O)N1CCCC(CCO2)C1` (stereo partly drawn) [Compound 37, N-((9S,12S)-5^4-methyl-8,11,14-trioxo-9-phenethyl-4-oxa-7,10-diaza-1(3,1)-piperidina-5(1,3)-benzenacyclotetradecaphane-12-yl)methanesulfonamide], the IC50 (in the test with HT-29 cells; in test [1] (setting [2])) was < 100 nM throughout.

Regarding `CCOC(=O)N[C@H]1CC(=O)N2CCCC(CCOc3ccc(C)c(c3)CNC(=O)[C@H](CCc3ccccc3)NC1=O)C2` (stereo partly drawn) [Compound 39, ethyl ((9S,12S)-5^4-methyl-8,11,14-trioxo-9-phenethyl-4-oxa-7,10-diaza-1(3,1)-piperidina-5(1,3)-benzenacyclotetradecaphane-12-yl)carbamate], the IC50 in the test on HT-29 cells was < 100 nM; in test [1] (A549, read-out: PGLo A549 [nM]), < 100 nM.

`Cc1ccc2cc1CNC(=O)[C@H](CCc1ccccc1)NC(=O)[C@@H](NC(=O)c1ccccn1)CC(=O)N1CCCC(CCO2)C1` (stereo partly drawn) [Compound 40, N-((9S,12S)-5^4-methyl-8,11,14-trioxo-9-phenethyl-4-oxa-7,10-diaza-1(3,1)-piperidina-5(1,3)-benzenacyclotetradecaphane-12-yl)picolinamide]: the IC50 (in the test with HT-29 cells; in test [1] (setting [2])) was < 100 nM in each case.

`Cc1ccc2cc1CNC(=O)[C@H](CCc1ccccc1)NC(=O)[C@@H](NC(=O)c1ccncc1)CC(=O)N1CCCC(CCO2)C1` (stereo partly drawn) [Compound 42, N-((9S,12S)-5^4-methyl-8,11,14-trioxo-9-phenethyl-4-oxa-7,10-diaza-1(3,1)-piperidina-5(1,3)-benzenacyclotetradecaphane-12-yl)isonicotinamide]: the IC50 (in the test on HT-29 cells; in test [1] (setting [2])) was < 100 nM each time.

Turning to `Cc1ccc2cc1CNC(=O)[C@H](CCc1ccccc1)NC(=O)[C@@H](N1C(=O)CCC1=O)CC(=O)N1CCCC(CCO2)C1` (stereo partly drawn) [Compound 43, (9S,12S)-12-(2,5-dioxopyrrolidin-1-yl)-5^4-methyl-9-phenethyl-4-oxa-7,10-diaza-1(3,1)-piperidina-5(1,3)-benzenacyclotetradecaphane-8,11,14-trione], the IC50 in the test with HT-29 cells was < 100 nM; in test [1] (setting [2]), 100 to 500 nM.

In the case of `Cc1ccc2cc1CNC(=O)[C@H](CCc1ccccc1)NC(=O)[C@@H](Nc1nc3ccccc3[nH]1)CC(=O)N1CCCC(CCO2)C1` (stereo partly drawn) [Compound 45, (9S,12S)-12-((1H-benzo[d]imidazol-2-yl)amino)-5^4-methyl-9-phenethyl-4-oxa-7,10-diaza-1(3,1)-piperidina-5(1,3)-benzenacyclotetradecaphane-8,11,14-trione], the IC50 (in the test on HT-29 cells; in test [1] (setting [2])) was 100 to 500 nM each time.

On to `Cc1ccc2cc1CNC(=O)C(CCc1cccnc1)NC(=O)CCC(=O)N1CCCC(CCO2)C1` (stereo not drawn) [Compound 51, 5^4-methyl-9-(2-(pyridin-3-yl)ethyl)-4-oxa-7,10-diaza-1(3,1)-piperidina-5(1,3)-benzenacyclotetradecaphane-8,11,14-trione], for which the IC50 in the test with HT-29 cells lay within 1000 to 5000 nM; in test [1] (setting [2]), 100 to 500 nM.

Turning to `Cc1ccc2cc1CNC(=O)[C@H](CCc1ccccc1)NC(=O)[C@@H](NC(=O)c1n[nH]c3ccccc13)CC(=O)N1CCCC(CCO2)C1` (stereo partly drawn) [Compound 60, N-((9S,12S)-5^4-methyl-8,11,14-trioxo-9-phenethyl-4-oxa-7,10-diaza-1(3,1)-piperidina-5(1,3)-benzenacyclotetradecaphane-12-yl)-1H-indazole-3-carboxamide], the results for the IC50 (in the test with HT-29 cells; in test [1] (setting [2])) were < 100 nM and 100 to 500 nM, respectively.

As to `COc1ccc(CC(=O)N[C@H]2CC(=O)N3CCCC(CCOc4ccc(C)c(c4)CNC(=O)[C@H](CCc4ccccc4)NC2=O)C3)cc1OC` (stereo partly drawn) [Compound 63, 2-(3,4-dimethoxyphenyl)-N-((9S,12S)-5^4-methyl-8,11,14-trioxo-9-phenethyl-4-oxa-7,10-diaza-1(3,1)-piperidina-5(1,3)-benzenacyclotetradecaphane-12-yl)acetamide], the IC50 (in the test on HT-29 cells; in test [1] (setting [2])) was < 100 nM throughout.

As to `Cc1ccc2cc1CNC(=O)[C@H](Cc1c[nH]c3ccccc13)NC(=O)CCC(=O)N1CCCC(CCO2)C1` (stereo partly drawn) [Compound 77, (9S)-9-((1H-indol-3-yl)methyl)-5^4-methyl-4-oxa-7,10-diaza-1(3,1)-piperidina-5(1,3)-benzenacyclotetradecaphane-8,11,14-trione], the IC50 in the test on HT-29 cells was 1000 to 5000 nM; in test [1] (setting [2]), 500 to 1000 nM.

Turning to `Cc1ccc2cc1CNC(=O)[C@H](C)NC(=O)CCC(=O)N1CCCC(CCO2)C1` (stereo partly drawn) [Compound 78, (9S)-5^4,9-dimethyl-4-oxa-7,10-diaza-1(3,1)-piperidina-5(1,3)-benzenacyclotetradecaphane-8,11,14-trione], in test [1] (setting [2]), the IC50 is > 5000 nM.

As for `Cc1ccc2cc1CNC(=O)[C@H](Cc1ccccc1)NC(=O)CCC(=O)N1CCCC(CCO2)C1` (stereo partly drawn) [Compound 79, (9S)-9-benzyl-5^4-methyl-4-oxa-7,10-diaza-1(3,1)-piperidina-5(1,3)-benzenacyclotetradecaphane-8,11,14-trione], the IC50 (in the test on HT-29 cells; in test [1] (setting [2])) was 1000 to 5000 nM throughout.

On to `Cc1ccc2cc1CNC(=O)[C@H](CCc1ccccc1)NC(=O)[C@@H](NC(=O)[C@H](C)c1ccccc1)CC(=O)N1CCCC(CCO2)C1` (stereo partly drawn) [Compound 80, (2R)-N-((9S,12S)-5^4-methyl-8,11,14-trioxo-9-phenethyl-4-oxa-7,10-diaza-1(3,1)-piperidina-5(1,3)-benzenacyclotetradecaphane-12-yl)-2-phenylpropanamide], for which the IC50 (in the test with HT-29 cells; in test [1] (setting [2])) was < 100 nM in each case.

Take `Cc1ccc2cc1CNC(=O)[C@H](CCc1ccccc1)NC(=O)[C@@H](NC(=O)[C@@H](C)c1ccccc1)CC(=O)N1CCCC(CCO2)C1` (stereo partly drawn) [Compound 81, (2S)-N-((9S,12S)-5^4-methyl-8,11,14-trioxo-9-phenethyl-4-oxa-7,10-diaza-1(3,1)-piperidina-5(1,3)-benzenacyclotetradecaphane-12-yl)-2-phenylpropanamide]: the IC50 (in the test with HT-29 cells; in test [1] (setting [2])) was < 100 nM each time.

`Cc1ccc2cc1CNC(=O)[C@H](CCc1ccccc1)NC(=O)[C@@H](NC(=O)C1CCCc3ccccc31)CC(=O)N1CCCC(CCO2)C1` (stereo partly drawn) [Compound 82, N-((9S,12S)-5^4-methyl-8,11,14-trioxo-9-phenethyl-4-oxa-7,10-diaza-1(3,1)-piperidina-5(1,3)-benzenacyclotetradecaphane-12-yl)-1,2,3,4-tetrahydronaphthalene-1-carboxamide]: the IC50 (in the test with HT-29 cells; in test [1] (setting [2])) was < 100 nM in each case.

For the molecule `COc1ccc(CC(=O)N[C@H]2CC(=O)N3CCCC(CCOc4ccc(C)c(c4)CNC(=O)[C@H](CCc4ccccc4)NC2=O)C3)cc1` (stereo partly drawn) [Compound 83, 2-(4-methoxyphenyl)-N-((9S,12S)-5^4-methyl-8,11,14-trioxo-9-phenethyl-4-oxa-7,10-diaza-1(3,1)-piperidina-5(1,3)-benzenacyclotetradecaphane-12-yl)acetamide], the IC50 (in the test on HT-29 cells; in test [1] (setting [2])) was < 100 nM each time.

Turning to `COc1ccccc1CC(=O)N[C@H]1CC(=O)N2CCCC(CCOc3ccc(C)c(c3)CNC(=O)[C@H](CCc3ccccc3)NC1=O)C2` (stereo partly drawn) [Compound 84, 2-(2-methoxyphenyl)-N-((9S,12S)-5^4-methyl-8,11,14-trioxo-9-phenethyl-4-oxa-7,10-diaza-1(3,1)-piperidina-5(1,3)-benzenacyclotetradecaphane-12-yl)acetamide], the IC50 (with HT-29 cells; in test [1] (setting [2])) was < 100 nM each time.

For the origin of these results see patent US20240415819A1, “MACROCYCLIC COMPOUNDS AS PROTEASOME SUBUNIT BETA TYPE-5 INHIBITORS” (Lead Discovery Center GmbH, priority 2021, published 2024).
